According to patent US20210000730A1, “COMPOSITION COMPRISING OPTICAL CLEARING AGENT FOR IMPROVING OPTICAL CHARACTERISTIC OF SKIN” (LG HOUSEHOLD & HEALTH CARE LTD., priority 2018, published 2021):
“Also recorded” adds a separate entry of the source.

Tested on: corneum of subjects collected using corneum tape
Experiment: Reduction of light scattering of corneum tape, dark field image of polarization microscope with image analysis
Settings: washed and dried after 3~4 hours
Excerpt: The bright field image is a basic observation method of simply magnifying a sample without a unique optical unit and it is suitable for confirming the structure of the sample, but it is not appropriate for confirming the scattering light. The dark field image is an observation method of inducing the direct illumination light reaching the sample out, and collecting only the scattering light from the sample with objective lens, and the light from the upper light source of the microscope is scattered from the keratinocytes and appears white, and as the scattering decreases, it appears black.
The numerical value of the analyzed image is expressed in the range of 30-200, and the more the white image is, the higher the value is. The average value of the image numerical value of the unapplied site and the average value of the image numerical value of the applied site were obtained, and the reduction ratio of the image numerical value of the applied site compared to the unapplied site was calculated as a percentage.
On the other hand, to compare the effect of the present disclosure by relative values at the same concentration, the solution of urea, glycerol, sucrose, sodium lactate, polyethylene glycol 400 and hexanediol of the same concentration (10% by weight) was prepared and compared and evaluated (FIG. 3a). […]

Which “reduction of light scattering compared to the control group (water)” value (10% of urea, 100 ul applied) does the source give for `NC(N)=O` [urea] here?
The value was 17%.

And the “light scattering of corneum after treatment, washing and drying (photograph, dark field image)” value (urea applied to corneum tape, control water)?
The value was “the scattering was reduced and it appeared transparent; also recorded: corneum scattering was reduced and appeared black”.
